Measurements published in patent publication US11890356B2 (The General Hospital Corporation, priority 2017, dated 2024).

How the values were obtained:
[1] = molecular target: HDAC6 (Homo sapiens (Human), UniProt Q9UBN7); assay: HDAC IC50 assay by Nanosyn (Caliper microfluidics mobility shift detection); assay type: biochemical
[2] = molecular target: T1, HDAC6 (Rattus norvegicus (Rat), UniProt A0A8I6GM68); assay: PET/CT imaging in rats with radiolabeled Example 2; assay type: in vivo, Sprague-Dawley rats
T1 sequence (A0A8I6GM68 whole entry): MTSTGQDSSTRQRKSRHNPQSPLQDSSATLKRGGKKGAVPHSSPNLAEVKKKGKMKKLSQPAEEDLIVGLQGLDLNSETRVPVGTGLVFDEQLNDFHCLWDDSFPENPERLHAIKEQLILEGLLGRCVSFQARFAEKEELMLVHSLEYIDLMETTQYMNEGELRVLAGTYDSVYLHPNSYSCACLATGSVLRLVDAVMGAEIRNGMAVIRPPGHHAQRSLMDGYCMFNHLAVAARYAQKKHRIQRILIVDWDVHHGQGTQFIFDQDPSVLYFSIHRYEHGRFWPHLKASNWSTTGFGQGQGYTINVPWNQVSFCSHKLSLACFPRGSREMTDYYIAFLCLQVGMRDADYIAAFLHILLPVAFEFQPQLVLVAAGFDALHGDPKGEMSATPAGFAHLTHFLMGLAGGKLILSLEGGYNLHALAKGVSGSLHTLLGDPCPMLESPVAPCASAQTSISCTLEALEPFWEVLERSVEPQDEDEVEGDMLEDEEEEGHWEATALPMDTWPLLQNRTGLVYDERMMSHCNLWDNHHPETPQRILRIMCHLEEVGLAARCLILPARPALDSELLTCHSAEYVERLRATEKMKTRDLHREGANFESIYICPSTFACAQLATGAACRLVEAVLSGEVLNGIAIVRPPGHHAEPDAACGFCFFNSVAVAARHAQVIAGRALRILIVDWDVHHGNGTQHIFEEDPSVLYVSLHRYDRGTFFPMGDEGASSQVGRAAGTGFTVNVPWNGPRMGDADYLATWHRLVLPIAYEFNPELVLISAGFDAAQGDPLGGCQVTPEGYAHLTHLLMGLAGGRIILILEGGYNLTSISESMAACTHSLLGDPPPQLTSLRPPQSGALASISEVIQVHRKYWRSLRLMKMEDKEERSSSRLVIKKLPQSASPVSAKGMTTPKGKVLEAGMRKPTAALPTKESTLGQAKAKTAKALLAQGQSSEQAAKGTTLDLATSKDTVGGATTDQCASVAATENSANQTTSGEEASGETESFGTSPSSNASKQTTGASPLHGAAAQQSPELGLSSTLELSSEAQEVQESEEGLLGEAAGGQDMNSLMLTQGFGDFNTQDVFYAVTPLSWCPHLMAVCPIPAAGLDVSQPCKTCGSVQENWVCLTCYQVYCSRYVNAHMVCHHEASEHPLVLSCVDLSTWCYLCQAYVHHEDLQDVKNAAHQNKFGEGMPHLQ
Procedure: 8 male Sprague-Dawley rats (Charles River Laboratories) were used for PET imaging. […] For intravenous administration, a catheter with an extension line was placed in a lateral tail vein. Each animal received a bolus injection of either vehicle (1:1:8 DMSO/Tween80/saline) or blocking agent in solution (1 mg/kg, 1 mg/mL in 1:1:8 DMSO/Tween80/saline) immediately prior to injection of the radiotracer.
After injection of a radiotracer bolus (˜700 ρCi Example 2) a 90 min dynamic PET scan was acquired in pairs for all animals. PET scans were performed on a GammaMedica Triumph PET/CT/SPECT scanner, corrected for attenuation with a μ-map derived from the corresponding CT image, which was acquired immediately following the PET scan. The dynamic PET data was binned into 38 timeframes (8×15 s, 8×1 min, 10×2 min, 12×5) and reconstructed individually via an iterative MLEM (maximum likelihood expectation maximization) algorithm in 16 iterations.
PET images were coregistered to the CT image acquired from the same animal using AMIDE Data sets were cropped and all further image analysis was conducted using PMOD 3.3 (PMOD Technologies, Zurich, Switzerland). For maximum consistency, the data were coregistered to the Schiffer Px Rat rat brain template and data was derived from a whole brain VOI (volumes of interest) for time activity curves.

[3] = system: acetylation state of α-Tubulin and histones (H3K9 and H4K12); assay: Acetylation level assay (Western blot) in human iPSC-derived neural progenitor cells; assay type: cell-based; conditions: ACY1215 5 μM, other compounds 10 μM; 6 h at 37° C.
[4] = molecular target: T1, HDAC6; assay: Autoradiography competition with radiolabeled Example 2 on rat brain slices; assay type: binding, Sprague-Dawley rat
Procedure: Sagittal slices of Sprague-Dawley rat brains were sectioned (10 μm) with a cryostat (Thermo Scientific HM550) and mounted onto ColorFrost Plus microscope slides (Fisher Scientific 12-550-18) and stored at −20° C. […] After 15 min, 50 μCi of the radiolabeled compound of Example 2 was added to each bath. After 15 minutes, all slides were washed by dipping 10× into buffer and subsequently submerged in 50 mL baths of buffer at 4° C. for 5 minutes. The slides were dried at 35° C. in a vacuum chamber. A phosphorus screen (Perkin Elmer 7001723) was exposed with the slides for 45 minutes and subsequently imaged with a Cyclone Plus Storage Phosphor (Perkin Elmer) detector. ImageJ was used to apply a Gaussian blur (3.0 radius) smoothing and a lookup table (Royal) with equivalent thresholds for brightness was applied. Raw intensity values from gray and white matter were quantified with the ImageJ measurement tool.

[5] = Hepatocyte stability; conditions: hu
[6] = Microsome stability; conditions: hu

Sequence of HDAC6 (Homo sapiens (Human), UniProt Q9UBN7) (Q9UBN7 whole entry): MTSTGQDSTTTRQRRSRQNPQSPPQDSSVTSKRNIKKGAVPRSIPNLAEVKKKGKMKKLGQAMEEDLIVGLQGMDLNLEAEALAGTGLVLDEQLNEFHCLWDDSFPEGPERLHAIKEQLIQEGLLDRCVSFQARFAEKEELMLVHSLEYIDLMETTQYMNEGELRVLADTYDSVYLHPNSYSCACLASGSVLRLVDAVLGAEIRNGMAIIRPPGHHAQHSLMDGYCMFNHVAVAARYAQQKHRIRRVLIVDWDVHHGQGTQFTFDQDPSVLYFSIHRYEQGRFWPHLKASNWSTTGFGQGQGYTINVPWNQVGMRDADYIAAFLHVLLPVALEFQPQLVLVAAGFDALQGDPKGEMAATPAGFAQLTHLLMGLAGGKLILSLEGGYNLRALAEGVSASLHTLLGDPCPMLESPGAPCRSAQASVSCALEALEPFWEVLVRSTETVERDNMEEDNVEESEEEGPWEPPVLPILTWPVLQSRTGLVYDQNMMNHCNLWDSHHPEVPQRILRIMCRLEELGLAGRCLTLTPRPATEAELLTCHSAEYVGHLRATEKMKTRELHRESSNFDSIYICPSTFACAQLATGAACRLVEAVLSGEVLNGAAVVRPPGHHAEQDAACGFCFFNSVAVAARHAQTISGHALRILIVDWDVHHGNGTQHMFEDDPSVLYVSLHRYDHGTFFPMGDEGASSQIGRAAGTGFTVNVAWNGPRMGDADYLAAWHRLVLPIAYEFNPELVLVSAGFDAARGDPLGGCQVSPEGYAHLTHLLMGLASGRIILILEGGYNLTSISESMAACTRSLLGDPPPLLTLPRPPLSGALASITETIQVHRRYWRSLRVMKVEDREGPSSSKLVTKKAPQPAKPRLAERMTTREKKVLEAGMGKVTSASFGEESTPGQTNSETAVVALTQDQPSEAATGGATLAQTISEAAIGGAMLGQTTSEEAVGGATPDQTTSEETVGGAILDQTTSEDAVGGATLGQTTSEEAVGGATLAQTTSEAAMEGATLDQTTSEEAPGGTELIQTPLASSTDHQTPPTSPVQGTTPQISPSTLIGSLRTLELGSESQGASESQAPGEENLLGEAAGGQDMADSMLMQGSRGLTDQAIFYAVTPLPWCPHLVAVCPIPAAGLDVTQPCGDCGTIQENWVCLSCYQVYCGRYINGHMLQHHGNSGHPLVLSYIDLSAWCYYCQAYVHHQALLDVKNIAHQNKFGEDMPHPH

Row | SMILES | Histone acetylation on H3K9 [3] | Histone acetylation on H4K12 [3] | amount of cellular acetyl-α-Tubulin [3] | other results
1 | CC(CC12CC3CC(CC(C3)C1)C2)N(C)Cc1ccc(C(=O)NO)cc1 (centres unmarked) [Example 20] |  |  |  | IC50 [1]: 290 nM
2 | CN(Cc1ccc(C(=O)NO)cc1[18F])CC12CC3CC(CC(C3)C1)C2 [Example 2, 4-((((Adamantan-1-yl)methyl)(methyl)amino)methyl)-3-[^18F]fluoro-N-hydroxybenzamide] |  |  |  | brain uptake and retention ([2]; PET, radiotracer iv bolus): excellent; off-rate in preclinical PET ([2]; rat, in vivo): slow
3 | CC(=O)Nc1ccc(C(=O)Nc2ccccc2N)cc1 [CI-994, tacedinaline] | significantly increased | significantly increased | did not increase | 
4 | CN1CCc2c(c3ccccc3n2Cc2ccc(C(=O)NO)cc2)C1 [Tubastatin A] | remained unaltered | remained unaltered | increased | binding of radiolabeled Example 2 to rat brain slices in presence of competitor ([4]; competitor at final concentration of 100 μM): reduce the amount of bound radioactivity to the same background as 10 μM Example 1
5 | CN(Cc1ccc(C(=O)NO)cc1F)CC12CC3CC(CC(C3)C1)C2 [Example 1, 4-(((((3s)-Adamantan-1-yl)methyl)(methyl)amino)methyl)-3-fluoro-N-hydroxybenzamide] | remained unaltered | remained unaltered | increased | effect of pretreatment on brain uptake of radiolabeled Example 2 ([2]; 1 mg/kg immediately prior to radiotracer): blocking of brain uptake; effect on time activity curve of radiolabeled Example 2 ([2]; 1 mg/kg, 30-minutes post radiotracer administration): clear deflection of the time activity curve; Hepatocyte stability (half-life, min) [5]: 20 (hu) min; Microsome stability (half-life, min) [6]: 19 min; binding of radiolabeled Example 2 to rat brain slices in presence of competitor ([4]; competitor at 1 μM): significantly reduced
6 | O=C(CCCCCCNC(=O)c1cnc(N(c2ccccc2)c2ccccc2)nc1)NO [ACY-1215, ricolinostat] |  | significantly increased | increased | 
